Columns and labels:
Type in all cases: in vivo
Johnson grass [1] = assay: post-emergence herbicidal activity, foliage spray; settings: 8 lb. per acre on foliage, 10 to 15 days, scale 0 = no injury to 10 = death
Excerpt: (§1) After spraying, the soil containers were placed in the greenhouse and provided with supplementary heat as required and daily or more frequent watering. The plants were maintained under these conditions for a period of from 15 to 21 days, at which time the condition of the plants and the degree of injury to the plants was rated on a scale of from 0 to 10, as follows: 0 = no injury, 1,2 = slight injury, 3,4 = moderate injury, 5,6 = moderately severe injury, 7,8,9 = severe injury and 10 = death.
(§2) In these experiments the compounds to be tested were formulated as aqueous emulsions and sprayed at the rate of 8 lb. per acre on the foliage of California barnyardgrass, crabgrass, dock, downybrome, foxtail, Johnson grass, mustard weed, pigweed and velvetleaf that had attained a prescribed size. After spraying the plants were placed in a greenhouse and watered daily or more frequently. Water was not applied to the foliage of the treated plants. The severity of the injury was determined 10 to 15 days after treatment and was rated on the scale of from 0 to 10 heretofore described.

Dock [2] = assay: post-emergence herbicidal activity, foliage spray; settings: 8 lb. per acre on foliage, 10 to 15 days, scale 0 = no injury to 10 = death
Excerpt: as §1, §2

Foxtail [3] = assay: post-emergence herbicidal activity, foliage spray; settings: 8 lb. per acre on foliage, 10 to 15 days, scale 0 = no injury to 10 = death
Excerpt: as §1, §2

Mustard [4] = assay: post-emergence herbicidal activity, foliage spray; settings: 8 lb. per acre on foliage, 10 to 15 days, scale 0 = no injury to 10 = death
Excerpt: as §1, §2

Crabgrass [5] = assay: post-emergence herbicidal activity, foliage spray; settings: 8 lb. per acre on foliage, 10 to 15 days, scale 0 = no injury to 10 = death
Excerpt: as §1, §2

Pigweed [6] = assay: post-emergence herbicidal activity, foliage spray; settings: 8 lb. per acre on foliage, 10 to 15 days, scale 0 = no injury to 10 = death
Excerpt: as §1, §2

Velvetleaf [7] = assay: post-emergence herbicidal activity, foliage spray; settings: 8 lb. per acre on foliage, 10 to 15 days, scale 0 = no injury to 10 = death
Excerpt: as §1, §2

Downybrome [8] = assay: post-emergence herbicidal activity, foliage spray; settings: 8 lb. per acre on foliage, 10 to 15 days, scale 0 = no injury to 10 = death
Excerpt: as §1, §2

California barnyardgrass [9] = assay: post-emergence herbicidal activity, foliage spray; settings: 8 lb. per acre on foliage, 10 to 15 days, scale 0 = no injury to 10 = death
Excerpt: as §1, §2

Johnson grass [10] = assay: pre-emergence herbicidal activity, greenhouse pots; settings: 8 lb. per acre, 15 to 21 days, scale 0 = no injury to 10 = death
Description: (§3) In these experiments small plastic greenhouse pots filled with dry soil were seeded with California barnyardgrass, crabgrass, dock, downybrome, foxtail, Johnson grass, mustard weed, pigweed and velvetleaf. Twenty-four hours or less after seeding the pots were sprayed with water until the soil was wet and the test compounds formulated as aqueous emulsions of acetone solutions containing emulsifiers were sprayed at the rate of 8 lb. per acre on the surface of the soil.
as §1

Dock [11] = assay: pre-emergence herbicidal activity, greenhouse pots; settings: 8 lb. per acre, 15 to 21 days, scale 0 = no injury to 10 = death
Description: as §3, §1

Foxtail [12] = assay: pre-emergence herbicidal activity, greenhouse pots; settings: 8 lb. per acre, 15 to 21 days, scale 0 = no injury to 10 = death
Description: as §3, §1

Mustard [13] = assay: pre-emergence herbicidal activity, greenhouse pots; settings: 8 lb. per acre, 15 to 21 days, scale 0 = no injury to 10 = death
Description: as §3, §1

Crabgrass [14] = assay: pre-emergence herbicidal activity, greenhouse pots; settings: 8 lb. per acre, 15 to 21 days, scale 0 = no injury to 10 = death
Description: as §3, §1

Pigweed [15] = assay: pre-emergence herbicidal activity, greenhouse pots; settings: 8 lb. per acre, 15 to 21 days, scale 0 = no injury to 10 = death
Description: as §3, §1

Velvetleaf [16] = assay: pre-emergence herbicidal activity, greenhouse pots; settings: 8 lb. per acre, 15 to 21 days, scale 0 = no injury to 10 = death
Description: as §3, §1

Downybrome [17] = assay: pre-emergence herbicidal activity, greenhouse pots; settings: 8 lb. per acre, 15 to 21 days, scale 0 = no injury to 10 = death
Description: as §3, §1

California barnyardgrass [18] = assay: pre-emergence herbicidal activity, greenhouse pots; settings: 8 lb. per acre, 15 to 21 days, scale 0 = no injury to 10 = death
Description: as §3, §1

[19] = tested on: leaf rust on wheat, Puccinia rubigo-vera; assay: control of leaf rust on wheat (soil watering); settings: about 25 cc. soil watering, rated 7 to 10 days after inoculation vs untreated
Description: The fungicidal utility of the compounds of this invention was illustrated by experiments carried out for the control of leaf rust on wheat, Puccinia rubigo-vera. In these experiments wheat plants were grown in soil until they were about 2-21/2 inches tall. The soil in which the plants were growing was then watered with about 25 cc. of a solution of the chemical in water. The plants were then placed in the greenhouse for about five days and inoculated with leaf rust spores by dusting the spores from diseased plants. After 7 to 10 days the growth of the fungus on the plants was measured and rated in comparison with plants inoculated but otherwise untreated.

| SMILES | Injury Rating, Post-Emergence (Johnson grass [1]) | Injury Rating, Post-Emergence (Dock [2]) | Injury Rating, Post-Emergence (Foxtail [3]) | Injury Rating, Post-Emergence (Mustard [4]) | Injury Rating, Post-Emergence (Crabgrass [5]) | Injury Rating, Post-Emergence (Pigweed [6]) | Injury Rating, Post-Emergence (Velvetleaf [7]) | Injury Rating, Post-Emergence (Downybrome [8]) | Injury Rating, Post-Emergence (California barnyardgrass [9]) | Injury Rating, Pre-Emergence (Johnson grass [10]) | Injury Rating, Pre-Emergence (Dock [11]) | Injury Rating, Pre-Emergence (Foxtail [12]) | Injury Rating, Pre-Emergence (Mustard [13]) | Injury Rating, Pre-Emergence (Crabgrass [14]) | Injury Rating, Pre-Emergence (Pigweed [15]) | Injury Rating, Pre-Emergence (Velvetleaf [16]) | Injury Rating, Pre-Emergence (Downybrome [17]) | Injury Rating, Pre-Emergence (California barnyardgrass [18]) | % Control ([19]; 200 ppm actual compound) [%] | % Control ([19]; 1000 ppm actual compound) [%] |
| --- | --- | --- | --- | --- | --- | --- | --- | --- | --- | --- | --- | --- | --- | --- | --- | --- | --- | --- | --- | --- |
| CCOC(=O)ON(C(=O)NC)c1ccc(Cl)c(Cl)c1 [Example 2, 1-(3,4-Dichlorophenyl)-1-ethoxycarbonyloxy-3-methylurea] | 8 | 9 | 10 | 10 | 10 | 10 | 10 | 10 | 10 | 8 | 9 | 10 | 10 | 10 | 10 | 10 | 9 | 10 | 100 | – |
| CNC(=O)N(OC(=O)OC)c1ccc(Cl)c(Cl)c1 [Example 1, 1-(3,4-Dichlorophenyl)-1-methoxycarbonyloxy-3-methylurea] | 8 | 8 | 10 | 10 | 10 | 10 | 10 | 10 | 10 | 9 | 9.5 | 10 | 10 | 10 | 10 | 10 | 9 | 9.5 | 100 | – |
| CCOC(=O)ON(C(=O)NC)c1cc(Cl)ccc1Cl [Example 3, 1-(2,5-Dichlorophenyl)-1-ethoxycarbonyloxy-3-methylurea] | – | – | – | – | – | – | – | – | – | – | – | – | – | – | – | – | – | – | – | 95 |
